# Measured values from paper PMC5814186, “Identification and characterization of novel enhanced cell penetrating peptides for anti-cancer cargo delivery” (Oncotarget, 2017).
# No end group written: not given here.
# Tests used:
# [1] = Stability to protease degradation in human serum; conditions: 37°C, different periods of time up to 24 h, triplicate; for stability in human serum (percentage of intact peptide), shuttles associated to the cargo PP2A/SET, compared to the shuttle without cargo: MS (MALDI-TOF)
# Protocol: We further analyzed the stability to proteases degradation of the shuttles in human serum upon incubation at 37°C for different periods of time. All the shuttles were incubated with human serum and the resistance to proteases degradation analyzed by HPLC-MS.
# Figure 7 Stability of the new generated shuttles in human serum (A) The shuttles were incubated at 37°C in human serum for different periods of time and their integrity (percentage of intact peptide) was analyzed by mass spectrometry (MS). Every measurement was performed in triplicate. Standard deviation is shown. (B) The shuttles Tat, Penetatin and R8 were incubated as above and the integrity was analyzed by MS. Every measurement was performed in triplicate.
# For this, the new generated bi-functional peptides (shuttles associated to the cargo PP2A/SET) were incubated with human serum for different periods of time.
# Figure 9 Stability in human serum of the shuttles associated to a cargo (PP2A/SET binding site) The shuttles associated to the cargo PP2A/SET were incubated at 37°C in human serum for different periods of time and their integrity (percentage of intact peptide) was analyzed by mass spectrometry (MS). Measurements were performed in triplicate and standard deviation is shown.
# Peptides were incubated at 37°C in 250 ml of human serum for different periods of time. Samples were collected and peptides degradation stopped by freezing. Peptides were extracted from samples using the Proteo Miner Protein Enrichment System (Bio-Rad). Peptide integrity (percentage of intact peptide) was analyzed by mass spectrometry (MS) using MALDI-TOF (Brucker Autoflex II) following their standard protocols. Measurements were performed in triplicate. MS data were analyzed using appropriate software (Clinprot tools, Flex analysis, Brucker).
# [2] = cited from earlier work
# From the text: Electrostatic interactions between the […] in the cell membrane surface are important for the internalization. […] When tryptophan residues were replaced by leucine residues, the peptide was not internalized.
# [3] = cited from earlier work; remark: listed apart in the source
# From the text: We have recently published the use of a CPP named Mut3DPT [15, 16]. […] We decided to generate new CPPs with enhanced penetration and stability, compared to the original Mut3DPT shuttle and keeping equilibrium among penetration, solubility and toxicity.
Compound,"stability in human serum (percentage of intact peptide), shuttles associated to the cargo PP2A/SET, compared to the shuttle without cargo [1]",other results
N=C(N)NCCC[C@H](NC(=O)[C@H](CCCNC(=N)N)NC(=O)[C@H](CCCNC(=N)N)NC(=O)[C@H](CCCNC(=N)N)NC(=O)[C@H](CCCNC(=N)N)NC(=O)[C@H](CCCNC(=N)N)NC(=O)[C@H](CCCNC(=N)N)NC(=O)[C@@H](N)CCCNC(=N)N)C(=O)O [R8],–,"stability in human serum (percentage of intact peptide), shuttles without cargo ([1]; MS (MALDI-TOF; text HPLC-MS)): degraded by serum proteases and almost not detected by HPLC-MS upon 24 h of incubation"
KKKKKWKKWKKKETVTLLVALKVRYRERIT [Mut7DPT-PP2A/SET],does not significantly modify the stability,–
KKWKKWKKWKKETVTLLVALKVRYRERIT [Mut5DPT-PP2A/SET],slightly degradation upon 24 h,–
RRWRRWRRWRRETVTLLVALKVRYRERIT [Mut6DPT-PP2A/SET],does not significantly modify the stability,–
"RRWWRRWRR [RW9, literature CPP RW9 (…)]",–,cellular uptake / internalization [2]: good cellular uptake
VKKKKIKAEIKI [Mut3DPT],–,resistance to protease degradation [3]: favourable parameters of resistance to protease degradation
